Assay results reported in patent US5621133A (priority 1995, dated 1997).
pEC50, pKi: −log10 of the molar value. Where a name gives a salt, the structure may show the parent alone.

Key:
dopamine D-2 receptor = dopamine D-2 receptor (Rattus norvegicus, UniProt P61169); assay: biochemical; type: binding; settings: rat caudate, [125I]-p-aminophenylethyl spiroperidol; read-out: D-2 Ki
Description: Homogenized rat caudate was the source of the D-2 receptors. […] The molar affinity of the compound for the receptor binding site was calculated by the same method used for the D-1 receptor assay, assuming a competitive interaction between the compound and the radiolabeled ligand.

dopamine D-1 receptor [1] = settings: for Intrinsic Activity (adenylate cyclase assay): dopamine = 100, goldfish retina or rat striatum; for pEC50: read-out: EC50 (agonist activity in adenylate cyclase assay), tissue from goldfish retina or rat striatum
Description: In order to determine agonist activity, cell-free tissue homogenates are incubated in an ionic buffer solution containing ATP and the compound being evaluated. The tissue was obtained from either goldfish retina or rat striatum.

dopamine D-1 receptor [2] = molecular target: dopamine D-1 receptor (Rattus norvegicus, UniProt P18901); assay: biochemical; settings: D-1 Ki, rat caudate, [125I]SCH-23982
dopamine D-1 receptor (Rattus norvegicus, UniProt P18901), sequence (P18901 whole entry): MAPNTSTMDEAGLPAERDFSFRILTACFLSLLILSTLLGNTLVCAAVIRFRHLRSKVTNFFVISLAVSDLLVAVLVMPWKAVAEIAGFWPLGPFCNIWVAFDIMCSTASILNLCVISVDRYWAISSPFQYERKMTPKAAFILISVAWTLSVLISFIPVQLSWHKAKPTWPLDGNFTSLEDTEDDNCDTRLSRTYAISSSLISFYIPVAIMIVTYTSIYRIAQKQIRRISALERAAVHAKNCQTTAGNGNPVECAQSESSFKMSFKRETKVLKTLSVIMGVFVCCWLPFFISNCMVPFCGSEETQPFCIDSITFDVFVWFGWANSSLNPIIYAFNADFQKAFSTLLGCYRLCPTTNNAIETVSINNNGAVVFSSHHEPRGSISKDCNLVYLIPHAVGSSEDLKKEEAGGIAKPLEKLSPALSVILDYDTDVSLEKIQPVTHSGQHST
Description: The compounds compete with the radiolabeled ligand for occupancy of the receptors and the molar potency of each compound was quantified.
The Ki values are inversely proportional to the affinity of the compound for the receptor.

dopamine D-2 receptor, sequence (P61169 whole entry): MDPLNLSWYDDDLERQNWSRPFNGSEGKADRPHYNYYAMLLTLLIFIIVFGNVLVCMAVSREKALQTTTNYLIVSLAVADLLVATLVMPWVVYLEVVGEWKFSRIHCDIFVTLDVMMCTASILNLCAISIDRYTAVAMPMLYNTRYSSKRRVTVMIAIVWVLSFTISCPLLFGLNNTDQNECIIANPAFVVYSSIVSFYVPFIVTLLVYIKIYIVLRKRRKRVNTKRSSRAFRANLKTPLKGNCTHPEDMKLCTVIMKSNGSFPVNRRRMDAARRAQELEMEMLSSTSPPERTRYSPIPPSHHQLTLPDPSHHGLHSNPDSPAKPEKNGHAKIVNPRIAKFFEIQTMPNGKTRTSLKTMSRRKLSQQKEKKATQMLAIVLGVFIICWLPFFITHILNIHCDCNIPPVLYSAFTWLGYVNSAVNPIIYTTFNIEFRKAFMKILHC

| Compound | pKi (dopamine D-2 receptor) | Intrinsic Activity (adenylate cyclase assay) (dopamine D-1 receptor [1]) | pEC50 (dopamine D-1 receptor [1]) | pKi (dopamine D-1 receptor [2]) |
| --- | --- | --- | --- | --- |
| CNC[C@H]1O[C@@H](c2ccc(F)cc2)Cc2c1ccc(O)c2O (relative stereo) [Example 136] | 5.60 | 133 | 8.30 | 7.00 |
| CC(C)(C)C1Cc2c(ccc(O)c2O)C2=C1CCNC2 (stereo not drawn) [Example 203] | 5.37 | 0 | < 5.00 | 6.00 |
| NC[C@H]1O[C@@H](c2cccc(C(F)(F)F)c2)Cc2c1ccc(O)c2O (relative stereo) [Example 99] | 5.05 | 134 | 8.30 | 7.66 |
| NC[C@@H]1O[C@H](CN2Cc3ccccc3C2=O)Cc2c1ccc(O)c2O (relative stereo) [Example 87] | 6.15 | 54 | 7.30 | 4.96 |
| C=CCNC[C@H]1O[C@@H](CCCC)Cc2c1ccc(O)c2O (relative stereo) [Example 125] | < 5.00 | 63 | 6.00 | 5.57 |
| CC(=O)NCC[C@H]1Cc2c(ccc(O)c2O)[C@@H](CN)O1 (relative stereo) [Example 172] | < 5.00 | 116 | 6.66 | 5.96 |
| NCC1=CC(c2ccc(O)cc2)Cc2c1ccc(O)c2O (stereo not drawn) [Example 39] | < 5.00 | 84 | 7.30 | 5.85 |
| CCNC[C@@H]1O[C@H](C(C)(C)C)Cc2c1ccc(O)c2O [Example 128] | 4.64 | 108 | 7.06 | 6.24 |
| NC[C@@H]1S[C@H](c2ccccc2)Cc2c1ccc(O)c2O (relative stereo) [Example 186, [1,3-cis]1-Aminomethyl-3-phenyl-3,4-dihydro-5,6-dihydroxy-1H-2-benzothiopyran Hydrochloride] | 4.47 | 95 | 5.89 | 5.72 |
| CNC[C@H]1O[C@@H](CC2CCCCC2)Cc2c1ccc(O)c2O (relative stereo) [Example 140] | 5.82 | 113 | 8.08 | 7.22 |
| NC[C@H]1O[C@@H](CN2CCCC2)Cc2c1ccc(O)c2O (relative stereo) [Example 156, [1,3-cis]1-Aminomethyl-3,4-dihydro-5,6-dihydroxy-3-pyrrolidinylmethyl-1H-2-benzopyran Dihydrochloride] | 4.80 | 127 | 5.02 | 5.20 |
| NC[C@@H]1O[C@H](c2ccc(Br)cc2)Cc2c1ccc(O)c2O (relative stereo) [Example 69] | 5.57 | 108 | 7.14 | 7.06 |
| CCCCC1Cc2c(ccc(O)c2O)C2=C1CCNC2 (stereo not drawn) [Example 243] | 5.52 | 83 | 6.02 | 7.15 |
| NC[C@@H]1O[C@H](c2ccc(I)cc2)Cc2c1ccc(O)c2O (relative stereo) [Example 80] | 5.96 | 161 | 8.10 | 7.85 |
| NCCC(=O)Oc1ccc2c(c1OC(=O)CCN)CC(c1ccccc1)C=C2CN (stereo not drawn) [Example 27] | 5.18 |  | 6.70 | < 5.00 |
| CCOC(=O)Oc1ccc2c(c1OC(=O)OCC)CC(c1ccccc1)C=C2CN (stereo not drawn) [Example 29] | < 5.00 | 54 | 6.00 | 5.22 |
| C=CCC[C@H]1Cc2c(ccc(O)c2O)[C@@H](CNC)O1 (relative stereo) [Example 132] | 6.19 | 106 | 6.06 | 7.07 |
| CNC[C@H]1O[C@@H](Cc2ccc(OC)cc2)Cc2c1ccc(O)c2O (relative stereo) [Example 137] | 6.26 | 93 | 6.00 | 5.54 |
| NC[C@H]1C[C@@H](c2cccc(O)c2)Cc2c1ccc(O)c2O (relative stereo) [Example 42] | 5.41 | 98 | 8.22 | 7.21 |
| NC[C@H]1O[C@@H](CNC(=O)c2ccco2)Cc2c1ccc(O)c2O (relative stereo) [Example 168] | < 5.00 | 103 | 6.57 | 4.77 |
| NC[C@H]1O[C@@H](CN2CCOCC2)Cc2c1ccc(O)c2O (relative stereo) [Example 157] | 4.80 | 111 | 6.28 | 5.89 |

Other lines, results leading:

| pKi (dopamine D-2 receptor) | Intrinsic Activity (adenylate cyclase assay) (dopamine D-1 receptor [1]) | pEC50 (dopamine D-1 receptor [1]) | pKi (dopamine D-1 receptor [2]) | Compound |
| --- | --- | --- | --- | --- |
| < 5.00 | 82 | 7.24 | 5.40 | NCC1CC2(CCCCC2)Cc2c1ccc(O)c2O (stereo not drawn) [Example 194] |
| < 5.00 | 53 | 5.57 | 5.41 | NCC1=CC2(CCCCCCCCC2)Cc2c1ccc(O)c2O [Example 234] |
| < 5.00 | 43 | 6.15 | 4.15 | NC[C@@H]1O[C@H](C2CCCCC2)Cc2c1ccc1c2OC2(CCCCC2)O1 (relative stereo) [Example 63] |
| < 5.00 | 65 | 5.82 | 5.48 | NCC1=CC2(CCCCC2)Cc2c1ccc(O)c2O [Example 189] |
| 5.80 | 79 | 7.17 | 7.59 | Oc1ccc2c(c1O)CC1(CCCCCC1)C1=C2CNCC1 [Example 206] |
| < 5.00 | 110 | 7.15 | 7.08 | NCC1OC2(CCCCCCC2)Cc2c1ccc(O)c2O (stereo not drawn) [Example 94] |
| 5.49 | 63 | 6.17 | 6.19 | NCC1CC2(CCCCCC2)Cc2c1ccc(O)c2O (stereo not drawn) [Example 193] |
| 5.64 | 64 | 6.62 | 6.64 | CNCC1OC2(CCCCCCCC2)Cc2c1ccc(O)c2O (stereo not drawn) [Example 224] |
| 5.52 | 68 | 5.66 | 4.92 | Oc1ccc2c(c1O)C[C@H](C1CCCCC1)O[C@@H]2CN1CCCC1 (relative stereo) [Example 115] |
| < 5.00 | 34 | 5.72 | 5.19 | NCC1CC2(CCCCCCCCC2)Cc2c1ccc(O)c2O (stereo not drawn) [Example 237] |
| < 5.30 | 56 | 6.74 | 6.06 | NCC1CC2(CCCCCCC2)Cc2c1ccc(O)c2O (stereo not drawn) [Example 197] |
| < 5.00 | 36 | 6.15 | 5.36 | NCC1CC2(CCCCCCCC2)Cc2c1ccc(O)c2O (stereo not drawn) [Example 236] |
| 5.21 | 65 | 7.15 | 6.05 | NCC1OC2(CCCCC2)Cc2c1ccc(O)c2O (stereo not drawn) [Example 52] |
